Assay results taken from ChEMBL document CHEMBL5506017, “Brain-Permeable Immunoproteasome-Targeting Macrocyclic Peptide Epoxyketones for Alzheimer's Disease” (J Med Chem, 2024).
The source made the active and inactive calls. No cut-off for these calls is given here.

How the values were obtained:
[1] = Apparent permeability of the compound across apical to basolateral side in human Caco-2 cells expressing Pgp/BCRP at 10 uM incubated for 120 mins by LC-MS/MS analysis; format: ADME, cell-based; conditions: caco-2, 2 h
[2] = Metabolic stability in human liver microsomes assessed as half life at 2 uM measured upto 60 mins by LC-MS/MS analysis; format: ADME, Microsome; conditions: 1 h
[3] = Efflux ratio of apparent permeability across basolateral to apical side over apical to basolateral side in human Caco-2 cells expressing Pgp/BCRP at 10 uM incubated for 120 mins by LC-MS/MS analysis; format: ADME, cell-based; conditions: caco-2, 2 h
[4] = target: T1, Proteasome subunit beta type-9 (Homo sapiens, UniProt P28065); assay: Inhibition of human LMP2 using Ac-PAL-AMC as substrate incubated for 1 hr by fluorescence based SpectraMax M5e plate reader
T1 sequence (P28065 whole entry): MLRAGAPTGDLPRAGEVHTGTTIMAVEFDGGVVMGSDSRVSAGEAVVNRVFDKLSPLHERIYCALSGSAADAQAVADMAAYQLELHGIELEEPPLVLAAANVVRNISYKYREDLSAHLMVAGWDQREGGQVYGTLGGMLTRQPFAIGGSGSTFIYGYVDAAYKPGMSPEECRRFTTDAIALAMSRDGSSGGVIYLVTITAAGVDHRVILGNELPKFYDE

[5] = Metabolic stability in human liver microsomes assessed as parent compound remaining at 2 uM measured at 60 mins by LC-MS/MS analysis; format: ADME, Microsome; conditions: 1 h
[6] = Apparent permeability of the compound across basal to apical side in human Caco-2 cells expressing Pgp/BCRP at 10 uM incubated for 120 mins by LC-MS/MS analysis; format: ADME, cell-based; conditions: caco-2, 2 h
[7] = Cytotoxicity against human ARPE-19 cells assessed as reduction in cell viability incubated for 96 hrs by CellTiter 96 Aqueous One Solution Cell Proliferation Assay; format: toxicity, cell-based
[8] = Cytotoxicity against human HMC3 cells assessed as reduction in cell viability incubated for 96 hrs by CellTiter 96 Aqueous One Solution Cell Proliferation Assay; format: toxicity, cell-based
[9] = system: HMC3; assay: Cytotoxicity against human HMC3 cells assessed as reduction in cell viability at 30 to 100 uM incubated for 96 hrs by CellTiter 96 Aqueous One Solution Cell Proliferation Assay; format: toxicity, cell-based; conditions: hmc3, 96 h, dose 30-100 µM
[10] = Mutagenicity in Salmonella typhimurium TA100 at 0.01 to 100 uM incubated for 90 mins in presence of liver S9 fraction by AMES test; format: toxicity, subcellular; conditions: salmonella enterica subsp. enterica serovar typhimurium, s9, 1.5 h, dose 0.01-100 µM
[11] = system: ARPE-19; assay: Cytotoxicity against human ARPE-19 cells assessed as reduction in cell viability at 30 to 100 uM incubated for 96 hrs by CellTiter 96 Aqueous One Solution Cell Proliferation Assay; format: toxicity, cell-based; conditions: arpe-19, 96 h, dose 30-100 µM
[12] = Mutagenicity in Salmonella typhimurium TA98 at 0.01 to 100 uM incubated for 90 mins in absence of liver S9 fraction by AMES test; format: toxicity; conditions: salmonella enterica subsp. enterica serovar typhimurium, s9, 1.5 h, dose 0.01-100 µM
[13] = Mutagenicity in Salmonella typhimurium TA98 at 0.01 to 100 uM incubated for 90 mins in presence of liver S9 fraction by AMES test; format: toxicity, subcellular; conditions: salmonella enterica subsp. enterica serovar typhimurium, s9, 1.5 h, dose 0.01-100 µM
[14] = Mutagenicity in Salmonella typhimurium TA100 at 0.01 to 100 uM incubated for 90 mins in absence of liver S9 fraction by AMES test; format: toxicity; conditions: salmonella enterica subsp. enterica serovar typhimurium, s9, 1.5 h, dose 0.01-100 µM
[15] = target: T2, Proteasome subunit beta type-9 (Mus musculus) (UniProt P28076); assay: Covalent inhibition of LMP2 in mouse BV-2 cells assessed as band shift at 0.3 to 3 uM incubated for 24 hrs by Western blot analysis; format: cell-based; conditions: dose 0.3-3 µM
T2 sequence (whole entry): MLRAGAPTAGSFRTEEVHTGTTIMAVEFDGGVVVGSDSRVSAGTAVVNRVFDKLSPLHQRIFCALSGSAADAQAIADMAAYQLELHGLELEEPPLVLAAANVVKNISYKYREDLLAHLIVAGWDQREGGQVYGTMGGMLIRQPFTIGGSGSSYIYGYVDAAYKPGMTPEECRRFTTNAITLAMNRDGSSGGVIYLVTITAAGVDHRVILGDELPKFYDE

[16] = Mutagenicity in Salmonella typhimurium TA98 at 1 mg/ml incubated for 90 mins in absence of liver S9 fraction by AMES test; format: toxicity; conditions: salmonella enterica subsp. enterica serovar typhimurium, s9, 1.5 h

| Papp [1] | t1/2 [2] [min] | Ratio [3] | IC50 [4] [µM] | Stability [5] | Papp [6] | inhibition [15] | Structure (SMILES) | IC50 at 96 h [7] [µM] | IC50 at 96 h [8] [µM] | Activity [9] | Activity [10] | Activity [11] | Activity [12] | Activity [13] | Activity [14] | Activity [16] |
| --- | --- | --- | --- | --- | --- | --- | --- | --- | --- | --- | --- | --- | --- | --- | --- | --- |
| 7.52 10^-6 cm/s | 13.4 | 1.68 | 0.127 | 4.57% | 12.6 10^-6 cm/s | – | C[C@]1(C(=O)[C@H](Cc2ccccc2)NC(=O)[C@@H]2COCCCCCC(=O)N3C[C@H](F)C[C@H]3C(=O)N2)CO1 | – | – | – | – | – | – | – | – | – |
| 8.03 10^-6 cm/s | 8.29 | 1.13 | 0.137 | 0.3% | 9.06 10^-6 cm/s | Active | C[C@]1(C(=O)[C@H](CC2=CCCC2)NC(=O)[C@@H]2COCCCCCC(=O)N3C[C@H](F)C[C@H]3C(=O)N2)CO1 | > 100 | > 100 | Non-Toxic | Non-Toxic | Non-Toxic | Non-Toxic | Non-Toxic | Non-Toxic | – |
| 5.91 10^-6 cm/s | 1.35 | 0.56 | – | Unstable | 3.33 10^-6 cm/s | – | C[C@]1(C(=O)[C@H](Cc2ccccc2)NC(=O)[C@@H]2Cc3ccc(cc3)OCCCCCCCC(=O)N3CCC[C@H]3C(=O)N2)CO1 | – | – | – | – | – | – | – | – | – |

Second part, the molecule before the results:

| Structure (SMILES) | Papp [1] | t1/2 [2] [min] | Ratio [3] | IC50 [4] [µM] | Stability [5] | Papp [6] | inhibition [15] | IC50 at 96 h [7] [µM] | IC50 at 96 h [8] [µM] | Activity [9] | Activity [10] | Activity [11] | Activity [12] | Activity [13] | Activity [14] | Activity [16] |
| --- | --- | --- | --- | --- | --- | --- | --- | --- | --- | --- | --- | --- | --- | --- | --- | --- |
| CC(C)C[C@H](NC(=O)[C@H](CCc1ccccc1)NC(=O)CN1CCOCC1)C(=O)N[C@@H](Cc1ccccc1)C(=O)N[C@@H](CC(C)C)C(=O)[C@@]1(C)CO1 [CARFILZOMIB] | 0.558 10^-6 cm/s | 1.34 | 9.33 | – | Unstable | 5.16 10^-6 cm/s | – | 0.058 | 0.016 | – | – | – | – | – | – | – |
| CC(C)C[C@H](NC(=O)[C@@H]1COCCCCCC(=O)N2CC[C@H]2C(=O)N1)C(=O)[C@@]1(C)CO1 | 6.8 10^-6 cm/s | 43 | 2.17 | – | 38.8% | 14.8 10^-6 cm/s | – | > 100 | > 30 | Non-Toxic | Non-Toxic | Non-Toxic | Non-Toxic | Non-Toxic | Non-Toxic | – |
| CC(C)C[C@H](NC(=O)[C@@H]1COCCCCCC(=O)NCC(=O)N2CCC[C@H]2C(=O)N1)C(=O)[C@@]1(C)CO1 | 0.454 10^-6 cm/s | 55.3 | 21.7 | – | 46.4% | 7.25 10^-6 cm/s | – | – | – | – | – | – | – | – | – | – |
| C[C@]1(C(=O)[C@H](CC2=CCCC2)NC(=O)[C@@H]2Cc3ccc(cc3)OCCCCCCCC(=O)N3CCC[C@H]3C(=O)N2)CO1 | 2.44 10^-6 cm/s | – | 0.43 | 0.22 | Unstable | 1.05 10^-6 cm/s | – | – | – | – | – | – | – | – | – | – |
| C[C@]1(C(=O)[C@H](Cc2ccccc2)NC(=O)[C@H](CO)NC(=O)c2cccc(=O)[nH]2)CO1 | – | – | – | – | – | – | – | > 30 | 24.1 | – | – | – | – | – | – | – |
| CC(C)C[C@H](NC(=O)[C@@H]1COCCCCCCC(=O)NCC(=O)N2CCC[C@H]2C(=O)N1)C(=O)[C@@]1(C)CO1 | 0.39 10^-6 cm/s | 24.1 | 22.2 | – | 17% | 8.64 10^-6 cm/s | – | – | – | – | – | – | – | – | – | – |
| CC(C)C[C@H](NC(=O)[C@@H]1COCCCCCC(=O)N2CC(F)(F)C[C@H]2C(=O)N1)C(=O)[C@@]1(C)CO1 | 29.1 10^-6 cm/s | 21.6 | 0.52 | – | 13.5% | 14.4 10^-6 cm/s | – | > 100 | > 100 | Non-Toxic | – | Non-Toxic | – | – | – | Toxic |
